Measurements published in patent publication US10231956B2, “3-(1H-pyrrolo[3,2-C]pyridin-2-YL)-1 H-pyrazolo[4,3-B]pyridines and therapeutic uses thereof” (Samumed, LLC, priority 2015, dated 2019).

Tests used:
[1] = system: SW480 colon cancer cells; assay: Cell viability assay (CellTiter-Blue) in SW480 colon cancer cells; assay type: cell-based; conditions: Homo sapiens; for EC50: 96 h, four days, CellTiter-Blue; for inhibition at 10 µM: given for EC50 >10 μM, read-out: percent inhibition at 10 μM
Protocol: Representative compounds were screened using the following assay procedure to assess the effect on cell viability as described below.
Each compound was dissolved in DMSO as a 10 mM stock and used to prepare compound source plates. Serial dilution (1:3, 8-point dose-response curves from 10 μM to 0.0045 μM) and compound transfer was performed using the ECHO 550 (Labcyte, Sunnyvale, Calif.) into 96-well clear bottom, black-walled plates (Corning-Costar).
Approximately 2×10^3 SW480 colon cancer cells were seeded into each well and allowed to incubate in the presence or absence of compound for four days at 37° C./5% CO2. Eight replicates of DMSO-treated cells served as controls and cells treated with compound were performed in duplicate.
After incubation, 20 μL of CellTiter-Blue (Promega) was added to each well allowed to incubate for approximately 3 hours. This reagent was a buffered solution which contains resazurin, metabolically active cells were able to reduce rezarurin (blue) into resorufin (pink) which was highly fluorescent. This measured fluorescence was used as a readout for cell viability.
After incubation, the plates were read at Ex 560 nm Em 590 nm (Cytation 3, BioTek). Dose-response curves were generated and EC50 concentration values were calculated using non-linear regression curve fit in the GraphPad Prism (San Diego, Calif.) or Dotmatics' Studies Software (Bishops Stortford, UK). For EC50 of >10 μM, the percent inhibition at 10 μM is provided.

[2] = system: primary human fibroblasts derived from IPF patients (LL29 cells); assay: Inhibition of fibrotic process: αSMA staining in TGF-β1 treated LL29 fibroblasts; assay type: cell-based; conditions: Fibroblast; for EC50: 96 h, TGF-β1 20 ng/mL, 4 days, % cells positive for αSMA; for inhibition at 10 µM: given for EC50 >10 μM, TGF-β1, αSMA, read-out: percent inhibition at 10 μM
Source text: Representative compounds were screened using primary human fibroblasts (derived from IPF patients) treated with TGF-β1 to determine their ability to inhibit the fibrotic process.
Human Fibroblast Cell Culture: Primary human fibroblasts derived from IPF patients (LL29 cells) [^1Xiaoqiu Liu, et. al., “Fibrotic Lung Fibroblasts Show Blunted Inhibition by cAMP Due to Deficient cAMP Response Element-Binding Protein Phosphorylation”, Journal of Pharmacology and Experimental Therapeutics (2005), 315(2), 678-687; ^2Watts, K. L., et. al., “RhoA signaling modulates cyclin D1 expression in human lung fibroblasts; implications for idiopathic pulmonary fibrosis”, Respiratory Research (2006), 7(1), 88] were obtained from American Type Culture Collection (ATCC) and expanded in F12 medium supplemented with 15% Fetal Bovine Serum and Penicillin/Streptomycin.
Compound Screening: Each compound was dissolved in DMSO as a 10 mM stock and used to prepare compound source plates. Serial dilution (1:2, 11-point dose-response curves from […]) and compound transfer was performed using the ECHO 550 (Labcyte, Sunnyvale, Calif.) into 384-well clear bottom assay plates (Greiner Bio-One) with appropriate DMSO backfill for a final DMSO concentration of 0.1%. LL29 cells are plated at 1,500 cells/well in 80 μL/well F12 medium supplemented with 1% Fetal Bovine Serum. One hour after addition of the cells, TGF-β1 (Peprotech; 20 ng/mL) was added to the plates to induce fibrosis (ref. 1 and 2 above). Wells treated with TGF-β1 and containing DMSO were used as controls. Cells were incubated at 37° C. and 5% CO2 for 4 days. Following incubation for 4 days, SYTOX green nucleic acid stain (Life Technologies [Thermo Fisher Scientific]) was added to the wells at a final concentration of 1 μM and incubated at room temperature for 30 min. Cells were then fixed using 4% formaldehyde (Electron Microscopy Sciences), washed 3 times with PBS followed by blocking and permeabilization using 3% Bovine Serum Albumin (BSA; Sigma) and 0.3% Triton X-100 (Sigma) in PBS. Cells were then stained with antibody specific to α-smooth muscle actin (αSMA; Abcam) (ref. 1 and 2 above) in 3% Bovine Serum Albumin (BSA; Sigma) and 0.3% Triton X-100 (Sigma) in PBS, and incubated overnight at 4° C. Cells were then washed 3 times with PBS, followed by incubation with Alexa Flor-647 conjugated secondary antibody (Life Technologies [Thermo Fisher Scientific]) and DAPI at room temperature for 1 hour. Cells were then washed 3 times with PBS and plates were sealed for imaging. αSMA staining was imaged by excitation at 630 nm and emission at 665 nm and quantified using the Compartmental Analysis program on the CellInsight CX5 (Thermo Scientific). Dead or apoptotic cells were excluded from analysis based on positive SYTOX green staining. % of total cells positive for αSMA were counted in each well and normalized to the average of 11 wells treated with TGF-β1 on the same plate using Dotmatics' Studies Software. The normalized averages (fold change over untreated) of 3 replicate wells for each compound concentration were used to create dose-responses curves and EC50 values were calculated using non-linear regression curve fit in the Dotmatics' Studies Software. For EC50 of >10 μM, the percent inhibition at 10 μM is provided.

Question: How did the EC50 [1] turn out when `Fc1cccc(-c2nccc3[nH]c(-c4n[nH]c5ccc(-c6cccnc6)nc45)cc23)c1` [Compound 4, 3-(4-(3-Fluorophenyl)-1H-pyrrolo[3,2-c]pyridin-2-yl)-5-(pyridin-3-yl)-1H-pyrazolo[4,3-b]pyridine] was run?
Answer: Its EC50 is > 10000 nM.

Question: And the inhibition at 10 µM [1]?
Answer: The inhibition at 10 µM was 25%.

Question: And the EC50 [2]?
Answer: The EC50 was 427 nM.

Question: For `CN(C)c1cncc(-c2ccc3[nH]nc(-c4cc5c(-c6cccc(F)c6)nccc5[nH]4)c3n2)c1` [Compound 7, 5-(3-(4-(3-Fluorophenyl)-1H-pyrrolo[3,2-c]pyridin-2-yl)-1H-pyrazolo[4,3-b]pyridin-5-yl)-N,N-dimethylpyridin-3-amine], which EC50 [1] is on record?
Answer: The EC50 was 483 nM.

Question: What about the EC50 [2] of the same molecule?
Answer: Its EC50 is > 10000 nM.

Question: And the inhibition at 10 µM [2]?
Answer: The inhibition at 10 µM was 0%.

Question: `Fc1cccc(-c2nccc3[nH]c(-c4n[nH]c5ccc(-c6cncc(CN7CCCCC7)c6)nc45)cc23)c1` [Compound 15, 3-(4-(3-Fluorophenyl)-1H-pyrrolo[3,2-c]pyridin-2-yl)-5-(5-(piperidin-1-ylmethyl)pyridin-3-yl)-1H-pyrazolo[4,3-b]pyridine] was tested. Which EC50 [1] did it give?
Answer: Its EC50 is 1140 nM.

Question: What about the EC50 [2] of the same molecule?
Answer: The EC50 was 554 nM.

Question: `O=C(Nc1cncc(-c2ccc3[nH]nc(-c4cc5c(-c6cccc(F)c6)nccc5[nH]4)c3n2)c1)C1CCCCC1` [Compound 23, N-(5-(3-(4-(3-Fluorophenyl)-1H-pyrrolo[3,2-c]pyridin-2-yl)-1H-pyrazolo [4,3-b]pyridin-5-yl)pyridin-3-yl)cyclohexanecarboxamide] was tested. Which EC50 [1] did it give?
Answer: The EC50 was 505 nM.

Question: And the EC50 [2]?
Answer: The EC50 was 463 nM.

Question: Which results are given for `Cc1ccncc1-c1ccc2[nH]nc(-c3cc4c(-c5ccc(F)cc5)nccc4[nH]3)c2n1` [Compound 33, 3-(4-(4-Fluorophenyl)-1H-pyrrolo[3,2-c]pyridin-2-yl)-5-(4-methylpyridin-3-yl)-1H-pyrazolo[4,3-b]pyridine]?
Answer: EC50 [1]: 4470 nM; EC50 [2]: 3300 nM

Question: With `O=C(Nc1cncc(-c2ccc3[nH]nc(-c4cc5c(-c6ccc(F)cc6)nccc5[nH]4)c3n2)c1)c1ccccc1` [Compound 39, N-(5-(3-(4-(4-Fluorophenyl)-1H-pyrrolo[3,2-c]pyridin-2-yl)-1H-pyrazolo [4,3-b]pyridin-5-yl)pyridin-3-yl)benzamide] as the molecule, how does the EC50 [1] read?
Answer: Its EC50 is 177 nM.

Question: And the EC50 [2]?
Answer: The EC50 was 302 nM.

Question: What does the source list for `Fc1ccc(-c2nccc3[nH]c(-c4n[nH]c5ccc(-c6cncc(CN7CCC(F)(F)C7)c6)nc45)cc23)cc1` [Compound 54, 5-(5-((3,3-Difluoropyrrolidin-1-yl)methyl)pyridin-3-yl)-3-(4-(4-fluorophenyl)-1H-pyrrolo[3,2-c]pyridin-2-yl)-1H-pyrazolo[4,3-b]pyridine]?
Answer: EC50 [1]: 516 nM; EC50 [2]: 521 nM

Question: Which EC50 [1] does the source give for `CC(C)CC(=O)Nc1cncc(-c2ccc3[nH]nc(-c4cc5c(-c6ccccc6F)nccc5[nH]4)c3n2)c1` [Compound 58, N-(5-(3-(4-(2-Fluorophenyl)-1H-pyrrolo[3,2-c]pyridin-2-yl)-1H-pyrazolo [4,3-b]pyridin-5-yl)pyridin-3-yl)-3-methylbutanamide] here?
Answer: The EC50 was 370 nM.

Question: What about the EC50 [2] of the same molecule?
Answer: Its EC50 is 370 nM.

Question: What does the source list for `CN(C)Cc1cncc(-c2ccc3[nH]nc(-c4cc5c(-c6ccccc6F)nccc5[nH]4)c3n2)c1` [Compound 69, 1-(5-(3-(4-(2-Fluorophenyl)-1H-pyrrolo[3,2-c]pyridin-2-yl)-1H-pyrazolo [4,3-b]pyridin-5-yl)pyridin-3-yl)-N,N-dimethylmethanamine]?
Answer: EC50 [1]: 596 nM; EC50 [2]: 626 nM

Question: Which results are given for `O=C(Nc1cncc(-c2ccc3[nH]nc(-c4cc5c(-c6ccccc6F)nccc5[nH]4)c3n2)c1)C1CC1` [Compound 76, N-(5-(3-(4-(2-Fluorophenyl)-1H-pyrrolo[3,2-c]pyridin-2-yl)-1H-pyrazolo [4,3-b]pyridin-5-yl)pyridin-3-yl)cyclopropanecarboxamide]?
Answer: EC50 [1]: 596 nM; EC50 [2]: 3520 nM

Question: What does the source list for `Fc1ccccc1-c1nccc2[nH]c(-c3n[nH]c4ccc(-c5cncc(CNCc6ccccc6)c5)nc34)cc12` [Compound 80, N-Benzyl-1-(5-(3-(4-(2-fluorophenyl)-1H-pyrrolo[3,2-c]pyridin-2-yl)-1H-pyrazolo[4,3-b]pyridin-5-yl)pyridin-3-yl)methanamine]?
Answer: EC50 [1]: 2140 nM; EC50 [2]: 1670 nM

Question: Which results are given for `Fc1ccccc1-c1nccc2[nH]c(-c3n[nH]c4ccc(-c5cncnc5)nc34)cc12` [Compound 83, 3-(4-(2-Fluorophenyl)-1H-pyrrolo[3,2-c]pyridin-2-yl)-5-(pyrimidin-5-yl)-1H-pyrazolo[4,3-b]pyridine]?
Answer: EC50 [1]: > 10000 nM; inhibition at 10 µM [1]: 27.9%; EC50 [2]: > 10000 nM; inhibition at 10 µM [2]: 0%

Question: With `Nc1cncc(-c2ccc3[nH]nc(-c4cc5c(-c6ccncc6)nccc5[nH]4)c3n2)c1` [Compound 115, 5-(3-(4-(Pyridin-4-yl)-1H-pyrrolo[3,2-c]pyridin-2-yl)-1H-pyrazolo[4,3-b]pyridin-5-yl)pyridin-3-amine] as the molecule, how does the EC50 [1] read?
Answer: The EC50 was > 10000 nM.

Question: What about the inhibition at 10 µM [1] of the same molecule?
Answer: The inhibition at 10 µM was 5.4%.

Question: And the EC50 [2]?
Answer: The EC50 was 436 nM.

Question: How did the EC50 [1] turn out when `c1cncc(-c2ccc3[nH]nc(-c4cc5c(N6CCCCC6)nccc5[nH]4)c3n2)c1` [Compound 172, 3-(4-(Piperidin-1-yl)-1H-pyrrolo[3,2-c]pyridin-2-yl)-5-(pyridin-3-yl)-1H-pyrazolo[4,3-b]pyridine] was run?
Answer: The EC50 was 543 nM.

Question: What about the EC50 [2] of the same molecule?
Answer: Its EC50 is 89 nM.

Question: With `CN(C)Cc1cncc(-c2ccc3[nH]nc(-c4cc5c(N6CCCCC6)nccc5[nH]4)c3n2)c1` [Compound 181, N,N-Dimethyl-1-(5-(3-(4-(piperidin-1l-yl)-1H-pyrrolo[3,2-c]pyridin-2-yl)-1H-pyrazolo[4,3-b]pyridin-5-yl)pyridin-3-yl)methanamine] as the molecule, how does the EC50 [1] read?
Answer: The EC50 was 2700 nM.

Question: What about the EC50 [2] of the same molecule?
Answer: The EC50 was 1590 nM.

Question: Which EC50 [1] does the source give for `CCCCC(=O)Nc1cncc(-c2ccc3[nH]nc(-c4cc5c(N6CCCCC6)nccc5[nH]4)c3n2)c1` [Compound 187, N-(5-(3-(4-(Piperidin-1-yl)-1H-pyrrolo[3,2-c]pyridin-2-yl)-1H-pyrazolo[4,3-b]pyridin-5-yl)pyridin-3-yl)pentanamide] here?
Answer: Its EC50 is 4460 nM.

Question: What about the EC50 [2] of the same molecule?
Answer: The EC50 was 2220 nM.

Question: How did the EC50 [1] turn out when `FC1(F)CCN(Cc2cncc(-c3ccc4[nH]nc(-c5cc6c(N7CCCCC7)nccc6[nH]5)c4n3)c2)C1` [Compound 194, 5-(5-((3,3-Difluoropyrrolidin-1-yl)methyl)pyridin-3-yl)-3-(4-(piperidin-1-yl)-1H-pyrrolo[3,2-c]pyridin-2-yl)-1H-pyrazolo[4,3-b]pyridine] was run?
Answer: Its EC50 is 1900 nM.

Question: And the EC50 [2]?
Answer: Its EC50 is 1030 nM.

Question: What does the source list for `c1ccc(-c2ccc3[nH]nc(-c4cc5c(N6CCCCC6)nccc5[nH]4)c3n2)nc1` [Compound 196, 3-(4-(Piperidin-1-yl)-1H-pyrrolo[3,2-c]pyridin-2-yl)-5-(pyridin-2-yl)-1H-pyrazolo[4,3-b]pyridine]?
Answer: EC50 [1]: 2830 nM; EC50 [2]: 270 nM

Question: How did the EC50 [1] turn out when `CC(C)CC(=O)Nc1cncc(-c2ccc3[nH]nc(-c4cc5c(N6CCN(C)CC6)nccc5[nH]4)c3n2)c1` [Compound 226, 3-Methyl-N-(5-(3-(4-(4-methylpiperazin-1-yl)-1H-pyrrolo[3,2-c]pyridin-2-yl)-1H-pyrazolo[4,3-b]pyridin-5-yl)pyridin-3-yl)butanamide] was run?
Answer: The EC50 was > 10000 nM.

Question: And the inhibition at 10 µM [1]?
Answer: The inhibition at 10 µM was 37.8%.

Question: What about the EC50 [2] of the same molecule?
Answer: Its EC50 is 325 nM.
